The values below come from patent US20080166432A1, “Biotherapeutics for Mitigation of Health Disorders from Terminalia Arjuna” (Avestha Gengraine Technologies Pvt. Ltd., priority 2003, published 2008).

Assay [1] relates to Klebsiella pneumoniea ATCC-10031. In words: Antibacterial assay, agar streak method. It is filed as cell-based. Further details: key: +++: abundant growth; ++: growth; +: less growth; −: no growth. To be noted: K. pneumoniea. An excerpt:
(§1) Testing of anti-microbial potential was done against following bacterial strains (Gram negative: Escherichia coli ATCC-10536, Pseudomonas aeruginosa ATCC-9027, Klebsiella pneumoniea ATCC-10031, Bordetella bronchiseptica ATCC-4617; Gram Positive: Staphylococcus aureus ATCC-29737, Streptococcus fecalis ATCC-8043, Micrococcus luteus ATCC-9341, Bacillus subtilis ATCC-6633, Bacillus cereus ATCC-11778, Bacillus pumilus ATCC-14884, Staphylococcus epidermidis ATCC-6358) were selected from the microorganisms given in United states Pharmacopoeia (2000), British Pharmacopoeia (1993) and Indian Pharmacopoeia (1996) for anti-microbial assays.
(§2) A stock of 100 mg/ml of Ethyl acetate, Acetone, Ethanol, Methanol and Water successive extract from Terminalia arjuna bark and direct ethanol and successive water extracts from Terminalia arjuna fruit was dissolved in DMSO. To determine the antibacterial potential extracts at a concentration of 5 mg/ml and 1 mg/ml were added to 30 ml of luke warm Luria Bertaini agar medium. After the medium was solidified, overnight grown 11 bacterial strains mentioned were taken in loop and streaked on the medium. The plates were incubated at 37° C. for 24 hrs after which the bacterial growth was monitored. Suitable controls were maintained with the extracts and the microorganisms. Luria Bertaini agar medium with and without 1.5% DMSO were used as negative control set, Ciprofloxacin (2 μg/ml) served as positive control.

In assay [2] the test system is Pseudomonas aeruginosa ATCC-9027. Briefly: Antibacterial assay, agar streak method. It is filed as cell-based. Set-up: key: +++: abundant growth; ++: growth; +: less growth; −: no growth. Conditions: P. aeruginosa.
From the text: as §1, §2

Assay [3] relates to Streptococcus fecalis ATCC-8043. In words: Antibacterial assay, agar streak method. It is filed as cell-based. Set-up: key: +++: abundant growth; ++: growth; +: less growth; −: no growth. Conditions: S. fecalis.
From the text: as §1, §2

The subject of assay [4] is Bordetella bronchiseptica ATCC-4617. Briefly: Antibacterial assay, agar streak method. The format is cell-based. Further details: key: +++: abundant growth; ++: growth; +: less growth; −: no growth. Conditions: B. bronchiseptica.
From the text: as §1, §2

Assay [5] deals with Staphylococcus aureus ATCC-29737. In words: Antibacterial assay, agar streak method. The format is cell-based. Set-up: key: +++: abundant growth; ++: growth; +: less growth; −: no growth. Conditions: S. aureus.
From the text: as §1, §2

Assay [6] concerns Staphylococcus epidermidis ATCC-6358. In words: Antibacterial assay, agar streak method. To be noted: S. epidermidis. It is filed as cell-based. Further details: key: +++: abundant growth; ++: growth; +: less growth; −: no growth.
From the text: as §1, §2

Assay [7] deals with Bacillus pumilus ATCC-14884. Briefly: Antibacterial assay, agar streak method. The format is cell-based. Further details: key: +++: abundant growth; ++: growth; +: less growth; −: no growth. Conditions: B. pumilus.
From the text: as §1, §2

For assay [8], the system named is Bacillus cereus ATCC-11778. In words: Antibacterial assay, agar streak method. Further details: key: +++: abundant growth; ++: growth; +: less growth; −: no growth. It is filed as cell-based. To be noted: B. cereus.
From the text: as §1, §2

Assay [9] deals with Escherichia coli ATCC-10536. In words: Antibacterial assay, agar streak method. The format is cell-based. To be noted: E. coli. Set-up: key: +++: abundant growth; ++: growth; +: less growth; −: no growth.
From the text: as §1, §2

Assay [10] concerns Micrococcus luteus ATCC-9341. Briefly: Antibacterial assay, agar streak method. Conditions: M. luteus. Further details: key: +++: abundant growth; ++: growth; +: less growth; −: no growth. It is filed as cell-based.
From the text: as §1, §2

The subject of assay [11] is Bacillus subtilis ATCC-6633. In words: Antibacterial assay, agar streak method. The format is cell-based. Set-up: key: +++: abundant growth; ++: growth; +: less growth; −: no growth. To be noted: B. subtilis; LB + Ciprofloxacin 2 μg/ml.
From the text: as §1, §2

Assay [12] in a line: DPPH scavenging effect (antioxidant assay). It is filed as physicochemical. Conditions: T. arjuna extracts from different plant parts. An excerpt:
This method is based on the reduction of DPPH, a stable free radical. Due to the odd electron of DPPH, it gives a strong absorption maximum at 517 nm by visible spectroscopy (purple color). As the odd electron of the radical becomes paired off in the presence of hydrogen donor, that is, a free-radical scavenging antioxidant, the absorption strength is decreased, and the resulting de-coloration is stoichiometric with respect to the number of electrons captured. This reaction has widely been used to evaluate the anti-oxidative activity of food and plant extracts.
Reactions were performed in 1.25 ml of methanol containing 0.5 mM freshly made DPPH and various amounts of the extract. Reaction mixtures were incubated at 37° C. for 30 min, and the absorbance at 517 nm was measured. This assay was done in triplicate.
Oxidant (DPPH) inhibitory activity (%)={(A517Control−A517 Sample)/A517Control}×100
IC50 is defined as the amount of extract required for 50% inhibition in the levels of free radical. Table 25 gives the IC50 values of Terminalia arjuna bark and fruit extracts.

For the next assay, the system named is endothelial cells. To be noted: ascorbate pretreatment; measured as citrulline formation and cGMP accumulation; cited from earlier work.
The mark [13] stands for this setting: LB + Ciprofloxacin 2 μg/ml (Table 27).

With `O=C(O)c1cn(C2CC2)c2cc(N3CCNCC3)c(F)cc2c1=O` [Ciprofloxacin], the bacterial growth result in assay [1] (LB + Ciprofloxacin 2 μg/ml), in [1] (setting [13]), in assay [2] (LB + Ciprofloxacin 2 μg/ml), in assay [2] (setting [13]), in assay [3] (LB + Ciprofloxacin 2 μg/ml) and in assay [3] (setting [13]) was “−” in each case. Further, the bacterial growth entry in assay [4] (LB + Ciprofloxacin 2 μg/ml), in assay [4] (setting [13]), in assay [5] (LB + Ciprofloxacin 2 μg/ml), in assay [5] (setting [13]), in assay [6] (LB + Ciprofloxacin 2 μg/ml) and in [6] (setting [13]) was “−” in each case. Moreover, the bacterial growth entry in [7] (LB + Ciprofloxacin 2 μg/ml), in assay [7] (setting [13]), in assay [8] (LB + Ciprofloxacin 2 μg/ml), in assay [8] (setting [13]), in assay [9] (LB + Ciprofloxacin 2 μg/ml) and in assay [9] (setting [13]) was “−” in each case. For the same molecule, the bacterial growth entry in assay [10] (LB + Ciprofloxacin 2 μg/ml), in [10] (setting [13]) and in [11] was “−” each time.
On to `O=C1O[C@H]([C@@H](O)CO)C(O)=C1O` [Ascorbate, ascorbic acid], for which the “IC50 values of antioxidation potential” value in assay [12] was determined as 26 µg/mL. In addition, the “increase of the cellular production of NO” value in the assay on endothelial cells is 3 fold.
